Source: patent US20020183256A1, “Cytostatic-integrin conjugates having specifically cleavable linking units” (priority 2000, published 2002)
Like-named read-outs stand apart in the source and are kept apart here. *1 amine or outer side, *2 acyl side, *3 side chain or, on linkers, in order; H or OH if unused. Where a SMILES comes first, the peptide text is derived from it. [ ]: non-standard residue; d: D form. The star is where a group is joined. ξ: configuration not given here. X6 = O=C(O)CC(NS(=O)(=O)c1ccc(-c2cccc(NC(=O)Nc3nc4ccccc4[nH]3)c2)cc1)c1cccc(N*)c1; Camptothecin(20R,20-O) = CC[C@]1(O*)C(=O)OCc2c1cc1n(c2=O)Cc2cc3ccccc3nc2-1; X1 = CCCNC(=O)Nc1cccc(S(=O)(=O)Nc2cccc(C(CC(=O)O)N*)c2)c1; NH(1,4-C6H4)NHCS = S=C(Nc1ccc(N[*:1])cc1)[*:2]; ξH = NC(Cc1c[nH]cn1)C(=O)O; CO = O=C([*:1])[*:2]

Tests used:
HT29 = assay: Growth inhibition test (MTT), cytotoxic action on tumour cell lines; type: cell-based, human
Protocol: (§1) The human large intestine cell lines SW 480 and HT29 (ATCC No. CCL 228 and HTB38 and the mouse melanoma cell line B16F10 (CRL 6475) were grown to confluence in Roux dishes in RPMI 1640 medium with addition of 10% FCS. They were then trypsinized and taken up in RPMI plus 10% FCS to a cell count of 50,000 cells or, for B16F10, 20,000 cells per ml. 100 μl of cell suspension/well were added to a 96 microwell plate and incubated at 37° C. for 1 day in a CO2 incubator. A further 100 μl of RPMI medium and 1 μl of DMSO were then added with the test substances. The growth was checked after day 6. For this, 25 μl of MTT solution (3-(4,5-dimethylthiazol-2-yl)-2,5-diphenyltetrazolium bromide) was added to each well at a starting concentration of 5 mg/ml of H2O. The plate was incubated at 37° C. for 5 hours in a CO2 incubator. The medium was then aspirated and 100 μl of i-propanol/well were added. After shaking with 100 μl of H2O for 30 min, the extinction was measured at 595 nm using a Multiplate Reader (BIO-RAD) 3550-UV).
(§2) The cytostatic action is indicated in Table 2 as an IC50 value, in each case for the individual cell lines.

SW 480 = assay: as above; type: cell-based, human
Protocol: as §1, §2

B16F10 = assay: as above; type: cell-based, mouse
Protocol: as §1, §2

αvβ3 receptor = target: T1, αvβ3 receptor (Homo sapiens, UniProt P05106+P06756); assay: αvβ3 binding test (echistatin displacement, WGA SPA beads); settings: IC50 values of the binding to the αvβ3 receptor, αvβ3 from human A375 cells
T1 construct: αvβ3 from human A375 cells was purified; endogenous in cells; host or cells: human A375 cells (receptor purified from the cells, analogous to Wong et al. 1996)
T1 sequence (P06756 31-889 limits assumed): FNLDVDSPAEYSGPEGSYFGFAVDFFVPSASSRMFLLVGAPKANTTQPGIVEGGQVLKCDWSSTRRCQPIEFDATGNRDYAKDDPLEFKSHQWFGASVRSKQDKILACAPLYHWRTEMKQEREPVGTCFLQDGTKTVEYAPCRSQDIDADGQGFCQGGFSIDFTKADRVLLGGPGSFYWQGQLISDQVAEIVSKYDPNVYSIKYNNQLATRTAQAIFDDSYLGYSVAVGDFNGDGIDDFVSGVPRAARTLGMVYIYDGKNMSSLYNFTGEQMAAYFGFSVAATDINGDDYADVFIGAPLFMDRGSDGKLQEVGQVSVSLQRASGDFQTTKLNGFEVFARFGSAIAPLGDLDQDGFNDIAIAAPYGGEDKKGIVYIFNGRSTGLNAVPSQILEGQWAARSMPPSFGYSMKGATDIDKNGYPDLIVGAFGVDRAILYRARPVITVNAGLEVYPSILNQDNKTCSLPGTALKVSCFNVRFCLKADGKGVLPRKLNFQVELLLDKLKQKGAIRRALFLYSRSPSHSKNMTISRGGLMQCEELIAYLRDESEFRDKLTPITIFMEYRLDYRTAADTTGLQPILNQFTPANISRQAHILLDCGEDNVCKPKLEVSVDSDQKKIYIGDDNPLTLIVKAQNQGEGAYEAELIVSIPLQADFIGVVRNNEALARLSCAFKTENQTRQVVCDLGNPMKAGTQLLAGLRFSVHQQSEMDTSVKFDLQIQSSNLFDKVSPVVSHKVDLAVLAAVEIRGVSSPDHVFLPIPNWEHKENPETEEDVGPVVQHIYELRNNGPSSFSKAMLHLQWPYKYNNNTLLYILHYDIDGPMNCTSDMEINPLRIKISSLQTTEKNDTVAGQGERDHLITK
T1 sequence (P06756 891-1048 partner limits assumed): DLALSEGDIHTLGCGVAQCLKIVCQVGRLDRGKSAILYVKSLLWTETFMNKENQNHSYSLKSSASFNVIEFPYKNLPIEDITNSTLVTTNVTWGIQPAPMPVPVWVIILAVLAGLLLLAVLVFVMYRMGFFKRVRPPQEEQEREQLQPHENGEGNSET
T1 sequence (P05106 27-788): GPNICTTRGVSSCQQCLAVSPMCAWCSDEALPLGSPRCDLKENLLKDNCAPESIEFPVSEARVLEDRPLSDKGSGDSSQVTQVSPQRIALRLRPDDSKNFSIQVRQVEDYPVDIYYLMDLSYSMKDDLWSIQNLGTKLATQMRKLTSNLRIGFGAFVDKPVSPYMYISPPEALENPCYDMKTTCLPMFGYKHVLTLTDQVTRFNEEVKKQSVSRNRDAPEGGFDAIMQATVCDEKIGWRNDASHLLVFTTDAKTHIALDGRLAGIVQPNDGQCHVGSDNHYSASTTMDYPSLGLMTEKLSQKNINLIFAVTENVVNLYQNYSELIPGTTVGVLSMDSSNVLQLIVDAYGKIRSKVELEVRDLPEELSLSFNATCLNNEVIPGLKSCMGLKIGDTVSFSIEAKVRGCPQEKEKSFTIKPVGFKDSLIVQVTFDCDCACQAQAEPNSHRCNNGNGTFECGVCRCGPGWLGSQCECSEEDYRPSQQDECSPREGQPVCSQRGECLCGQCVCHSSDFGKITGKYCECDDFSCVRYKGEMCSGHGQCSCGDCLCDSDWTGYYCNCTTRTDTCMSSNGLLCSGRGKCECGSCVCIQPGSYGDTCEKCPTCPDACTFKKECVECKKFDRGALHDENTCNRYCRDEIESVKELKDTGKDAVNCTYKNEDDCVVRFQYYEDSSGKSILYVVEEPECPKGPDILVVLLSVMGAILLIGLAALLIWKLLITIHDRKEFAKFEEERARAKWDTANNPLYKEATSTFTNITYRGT
Protocol: αvβ3 from human A375 cells was purified analogously to a procedure which was described by Wong et al. (Molecular Pharmacology, 50, 529-537 (1996)). In each case, 10 μl of αvβ3 (5 ng) in TBS pH 7.6, 2 mM CaCl2, 1 mM MgCl2, 1% n-octylglucopyranoside (Sigma); 10 μl of test substance in TBS pH 7.6, 0.1% DMSO and 45 μl of TBS pH 7.6, 2 mM CaCl2, 1 mM MgCl2, 1 mM MnCl2 were incubated at room temperature for 1 h. In each case, 25 μl of WGA SPA beads (Amersham, 4 mg/ml) and 10 μl of echistatin (0.1 μCi, Amersham, chloramine-T labelled) were then added. After 16 hours at room temperature, the samples were measured in a scintillation measuring apparatus (Wallac 1450).

[1] = HT29, MTT after day 6, read-out: IC50 values of the cytotoxic action on tumour cell lines, HT29
[2] = SW480, MTT after day 6, read-out: IC50 values of the cytotoxic action on tumour cell lines, SW480
[3] = B16F10, MTT after day 6, read-out: IC50 values of the cytotoxic action on tumour cell lines, B16F10

Compound | IC50 (HT29; [1]) [nM] | IC50 (SW 480; [2]) [nM] | IC50 (B16F10; [3]) [nM] | IC50 (αvβ3 receptor) [nM] | IC50 (HT29; human, 6 day) [nM] | IC50 (SW 480; human, 6 day) [nM] | IC50 (B16F10; mouse, 6 day) [nM]
CCCNC(=O)Nc1cccc(S(=O)(=O)Nc2cccc(C(CC(=O)O)NC(=O)Nc3ccc(NC(=S)N4CCC[C@@H]4C(=O)N[C@@H](CC(C)C)C(=O)NCC(=O)N[C@H](CCC)C(=O)N[C@H](CC(N)=O)C(=O)N[C@@H](C(=O)O[C@@]4(CC)C(=O)OCc5c4cc4n(c5=O)Cc5cc6ccccc6nc5-4)C(C)C)cc3)c2)c1 (single isomer, unassigned) [Example 21] | 30 | 60 | 200 |  |  |  | 
CCCCNC(=O)Nc1cccc(S(=O)(=O)Nc2cccc(C(CC(=O)O)NC(=O)Nc3ccc(NC(=S)NCC(=O)N4CCC[C@@H]4C(=O)N[C@@H](CC(C)C)C(=O)NCC(=O)N[C@H](CC(C)C)C(=O)N[C@H](CC(N)=O)C(=O)N[C@@H](C(=O)O[C@@]4(CC)C(=O)OCc5c4cc4n(c5=O)Cc5cc6ccccc6nc5-4)C(C)C)cc3)c2)c1 (single isomer, unassigned) [Example 22] | 15 | 30 | 90 |  |  |  | 
CCCNC(=O)Nc1cccc(S(=O)(=O)Nc2cccc(C(CC(=O)O)NC(=O)Nc3ccc(NC(=S)N4CCC[C@@H]4C(=O)N[C@@H](CC(C)C)C(=O)NCC(=O)N[C@H](Cc4c[nH]cn4)C(=O)N[C@@H](C(=O)O[C@@]4(CC)C(=O)OCc5c4cc4n(c5=O)Cc5cc6ccccc6nc5-4)C(C)C)cc3)c2)c1 (single isomer, unassigned) [Example 26] | 50 | 90 | 300 |  |  |  | 
CCCNC(=O)Nc1cccc(S(=O)(=O)Nc2cccc(C(CC(=O)O)NC(=O)Nc3ccc(NC(=S)N4CCC[C@@H]4C(=O)N[C@@H](CC(C)C)C(=O)NCC(=O)N[C@H](CC(C)C)C(=O)N[C@@H](C(=O)O[C@@]4(CC)C(=O)OCc5c4cc4n(c5=O)Cc5cc6ccccc6nc5-4)C(C)C)cc3)c2)c1 (single isomer, unassigned) [Example 27] | 150 | 200 | 800 |  |  |  | 
CCCNC(=O)Nc1cccc(S(=O)(=O)Nc2cccc(C(CC(=O)O)NC(=O)Nc3ccc(NC(=S)N4CCC[C@@H]4C(=O)N4CCC[C@@H]4C(=O)N[C@@H](CC(C)C)C(=O)NCC(=O)N[C@H](CC(C)C)C(=O)N[C@H](CC(N)=O)C(=O)N[C@@H](C(=O)O[C@@]4(CC)C(=O)OCc5c4cc4n(c5=O)Cc5cc6ccccc6nc5-4)C(C)C)cc3)c2)c1 (single isomer, unassigned) [Example 28] | 30 | 30 | 250 |  |  |  | 
CCCNC(=O)Nc1cccc(S(=O)(=O)Nc2cccc(C(CC(=O)O)NC(=O)Nc3ccc(NC(=S)NCC(=O)N4CCC[C@@H]4C(=O)N[C@@H](CC(C)C)C(=O)NCC(=O)N[C@H](CC(C)C)C(=O)N[C@H](Cc4c[nH]cn4)C(=O)N[C@@H](C(=O)O[C@@]4(CC)C(=O)OCc5c4cc4n(c5=O)Cc5cc6ccccc6nc5-4)C(C)C)cc3)c2)c1 (single isomer, unassigned) [Example 29] | 80 | 100 | 400 |  |  |  | 
CC[C@]1(OC(=O)[C@H](NC(=O)[C@@H](Cc2c[nH]cn2)NC(=O)[C@@H](CC(C)C)NC(=O)CNC(=O)[C@H](CC(C)C)NC(=O)[C@H]2CCCN2C(=O)Nc2cccc(C(CC(=O)O)NS(=O)(=O)c3ccc(-c4cccc(NC(=O)Nc5nc6ccccc6[nH]5)c4)cc3)c2)C(C)C)C(=O)OCc2c1cc1n(c2=O)Cc2cc3ccccc3nc2-1 (stereo partly drawn) [Example 7] ({X6-CO}-[dP]LG[dL][dH][dV]-{Camptothecin(20R,20-O)}) | 150 | 150 | 600 | 700 |  |  | 
CCCNC(=O)Nc1cccc(S(=O)(=O)Nc2cccc(C(CC(=O)O)NC(=O)Nc3ccc(NC(=S)N4CCC[C@@H]4C(=O)NCC(=O)NCC(=O)N[C@H](CC(C)C)C(=O)N[C@H](CC(N)=O)C(=O)N[C@@H](C(=O)O[C@@]4(CC)C(=O)OCc5c4cc4n(c5=O)Cc5cc6ccccc6nc5-4)C(C)C)cc3)c2)c1 (stereo partly drawn) [Example 23] ({X1-CO}-[NH(1,4-C6H4)NHCS][dP]GG[dL][dN][dV]-{Camptothecin(20R,20-O)}) | 150 | 400 | 1500 |  |  |  | 
CCCNC(=O)Nc1cccc(S(=O)(=O)Nc2cccc(C(CC(=O)O)NC(=O)Nc3ccc(NC(=S)N4CCC[C@@H]4C(=O)NC(Cc4c[nH]cn4)C(=O)NCC(=O)N[C@H](CC(C)C)C(=O)N[C@H](CC(N)=O)C(=O)N[C@@H](C(=O)O[C@@]4(CC)C(=O)OCc5c4cc4n(c5=O)Cc5cc6ccccc6nc5-4)C(C)C)cc3)c2)c1 (stereo partly drawn) [Example 24] ({X1-CO}-[NH(1,4-C6H4)NHCS][dP][ξH]G[dL][dN][dV]-{Camptothecin(20R,20-O)}) | 150 | 400 | 900 |  |  |  | 
CCCNC(=O)Nc1cccc(S(=O)(=O)Nc2cccc(C(CC(=O)O)NC(=O)Nc3ccc(NC(=S)N4CCC[C@H]4C(=O)N[C@@H](CC(C)C)C(=O)NCC(=O)N[C@@H](CC(C)C)C(=O)N[C@@H](C)C(=O)N[C@H](C(=O)O[C@]4(CC)C(=O)OCc5c4cc4n(c5=O)Cc5cc6ccccc6nc5-4)C(C)C)cc3)c2)c1 (stereo partly shown) [Example 30] | 400 | 500 |  |  |  |  | 
CCCNC(=O)Nc1cccc(S(=O)(=O)Nc2cccc(C(CC(=O)O)NC(=O)Nc3ccc(NC(=S)N4CCC[C@H]4C(=O)N[C@@H](CC(C)C)C(=O)NCC(=O)N[C@@H](CC(C)C)C(=O)N[C@H](C)C(=O)N[C@H](C(=O)O[C@]4(CC)C(=O)OCc5c4cc4n(c5=O)Cc5cc6ccccc6nc5-4)C(C)C)cc3)c2)c1 (stereo partly shown) [Example 31] | 250 | 300 |  |  |  |  | 
CCCNC(=O)Nc1cccc(S(=O)(=O)Nc2cccc(C(CC(=O)O)NC(=O)Nc3ccc(NC(=S)N4CCC[C@H]4C(=O)N[C@@H](CC(C)C)C(=O)NCC(=O)N[C@@H](CC(C)C)C(=O)N[C@H](C(=O)N[C@H](C(=O)O[C@]4(CC)C(=O)OCc5c4cc4n(c5=O)Cc5cc6ccccc6nc5-4)C(C)C)C(C)C)cc3)c2)c1 (stereo partly shown) [Example 32] | 100 | 120 | 200 |  |  |  | 
CCCNC(=O)Nc1cccc(S(=O)(=O)Nc2cccc(C(CC(=O)O)NC(=O)Nc3ccc(NC(=S)N4CCC[C@H]4C(=O)N[C@@H](CC(C)C)C(=O)NCC(=O)N[C@@H](CC(C)C)C(=O)N[C@@H](Cc4ccccc4)C(=O)N[C@H](C(=O)O[C@]4(CC)C(=O)OCc5c4cc4n(c5=O)Cc5cc6ccccc6nc5-4)C(C)C)cc3)c2)c1 (stereo partly shown) [Example 33] | 300 | 400 | 1000 |  |  |  | 
CCCNC(=O)Nc1cccc(S(=O)(=O)Nc2cccc(C(CC(=O)O)NC(=O)Nc3ccc(NC(=S)N4CCC[C@H]4C(=O)N[C@@H](CC(C)C)C(=O)NCC(=O)N[C@@H](CC(C)C)C(=O)N[C@@H](CO)C(=O)N[C@H](C(=O)O[C@]4(CC)C(=O)OCc5c4cc4n(c5=O)Cc5cc6ccccc6nc5-4)C(C)C)cc3)c2)c1 (stereo partly shown) [Example 34] | 50 | 100 | 800 |  |  |  | 
CCCNC(=O)Nc1cccc(S(=O)(=O)Nc2cccc(C(CC(=O)O)NC(=O)Nc3ccc(NC(=S)N4CCC[C@H]4C(=O)N[C@@H](CC(C)C)C(=O)NCC(=O)N[C@@H](CC(C)C)C(=O)N[C@H](C(=O)N[C@H](C(=O)O[C@]4(CC)C(=O)OCc5c4cc4n(c5=O)Cc5cc6ccccc6nc5-4)C(C)C)C(C)CC)cc3)c2)c1 (stereo partly shown) [Example 35] | 150 | 200 | 800 |  |  |  | 
CCCNC(=O)Nc1cccc(S(=O)(=O)Nc2cccc(C(CC(=O)O)NC(=O)Nc3ccc(NC(=S)N4CCC[C@H]4C(=O)N[C@@H](CC(C)C)C(=O)NCC(=O)N[C@@H](CC(C)C)C(=O)N[C@@H](CCC(=O)O)C(=O)N[C@H](C(=O)O[C@]4(CC)C(=O)OCc5c4cc4n(c5=O)Cc5cc6ccccc6nc5-4)C(C)C)cc3)c2)c1 (stereo partly shown) [Example 36] |  |  |  |  | 100 | 150 | 300
CCCNC(=O)Nc1cccc(S(=O)(=O)Nc2cccc(C(CC(=O)O)NC(=O)Nc3ccc(NC(=S)N4CCC[C@H]4C(=O)N[C@@H](CC(C)C)C(=O)NCC(=O)N[C@@H](CC(C)C)C(=O)NCC(=O)N[C@H](C(=O)O[C@]4(CC)C(=O)OCc5c4cc4n(c5=O)Cc5cc6ccccc6nc5-4)C(C)C)cc3)c2)c1 (stereo partly shown) [Example 37] | 300 | 500 |  |  |  |  | 
CCCNC(=O)Nc1cccc(S(=O)(=O)Nc2cccc(C(CC(=O)O)NC(=O)Nc3ccc(NC(=S)N4CCC[C@H]4C(=O)N[C@@H](CC(C)C)C(=O)NCC(=O)N[C@@H](CC(C)C)C(=O)N4CCC[C@H]4C(=O)N[C@H](C(=O)O[C@]4(CC)C(=O)OCc5c4cc4n(c5=O)Cc5cc6ccccc6nc5-4)C(C)C)cc3)c2)c1 (stereo partly shown) [Example 38] | 150 | 200 | 1000 |  |  |  | 
